In patent US20040191842A1, “Chemopreventive and therapeutic aspects of polyphenolic compositions and assays” (Medical College of Georgia Research Institute, Inc., priority 2002, published 2004):
“Also recorded” adds a separate entry of the source.

What was measured:
NHEK [1] = assay: MTT assay (SDH activity), NHEK; format: cell-based, human
Text: (§1) Succinate dehydrogenase activity assay (MTT assay).

OSC-2 and OSC-4 cells [2] = assay: MTT assay, OSC-2 and OSC-4 cells pretreated with catalase, 3-AT or NAC; format: cell-based, human
Text: as §1

p57 (KIP2) = format: cell-based, human; conditions: for p57 expression, carcinogen alone: 0.12 μM BaP or 10 μM NNK alone
Method: Cell treatments. For 24 hours treatments, exponentially growing cells with 40% confluency (to minimize differentiation and spontaneous apoptosis) were either maintained in 50 μM EGCG (2.29 mg/100 ml) or 0.2 mg/ml of GTPPs in tissue culture flasks (25 cm^2). Control flasks contained cells without any treatment. To test whether BaP or NNK interfere with the induction of p57, the human keratinocytes were treated with 0.12 μM BaP, or 10 μM NNK, either alone or in combination with 50 μM EGCG. To examine the time course of p57 induction, cells were treated with 50 μM EGCG and harvested for Western analysis at 30 minutes, 2 hours, 6 hours, and 24 hours. The human keratinocytes were treated when the cell density reached 85-90% confluency (to mimic the epithelium).
In a parallel series of experiments, treatment with EGCG was performed with 30 micrograms per milliliter (μg/ml) cycloheximide added to the keratinocyte media 30 minutes prior to the addition of EGCG. The dose-response experiments were performed using EGCG concentrations at 30, 50 100, and 200 μM in the culture media for 24 hours.
Western blot analysis. Cells from different treatment groups were lysed in RIPA buffer (1% NP-40, 1% sodium deoxycholate, 0.1% SDS, 0.15 M NaCl, 0.01 M sodium phosphate, pH 7.2, and 1% Trasylol) containing proteinase inhibitors (1 mM PMSF, 1 μg/ml each of aprotinin, leupeptin, and pepstatin). The concentration of protein in each sample was determined using the BioRad DC Protein Assay and spectrophotometry. Fifty micrograms (μg) of protein from each sample and a BioRad molecular weight standard marker were run on a 10% SDS-PAGE, followed by transfer to nitrocellulose membranes. Nonspecific binding to membranes was blocked with 10% nonfat milk. Specific primary polyclonal (rabbit) antibody against p57 and a horse radish peroxidase-conjugated goat anti-rabbit secondary antibody were used in conjunction with the ECL Chemiluminescence Kit and membranes were exposed to radiographic films for detection.

OSC-2 cells [3] = assay: Intracellular ROS levels (DFDA assay), OSC-2 cells; format: cell-based, human; conditions: 5 mM diamide or relatively high H2O2, 60 minutes
Method: (§2) Measurement of intracellular ROS levels. The ROS assay measures the accumulation of intracellular ROS levels. The non-fluorescent dye DFDA passively diffuses into cells, where the acetates are cleaved by intracellular esterases. […] Thus, values of the fluorescence in the cell cultures are constantly rising in this assay. Cells (1.5×10^4 cells/well) were incubated with Hallam's physiological saline (HPS) containing DFDA (10 μM) in a 96-well microplate for 30 minutes at 37° C. After the incubation, cells were washed three times with HPS and then incubated with HPS containing EGCG (15-200 μM) or diamide (5 mM) for the indicated time periods. The intracellular ROS levels were measured by using a fluorescence plate reader (BIO-TEK FL600, Bio-Tek Instruments, Inc., Winooski, Vt.), at an excitation wavelength of 485 nm and an emission wavelength of 530 nm.
as §2, with “assay (DFDA assay)” for “assay”, “dye dichlorofluorescein diacetate (DFDA)” for “dye DFDA”, “this assay due to the accumulation of ROS.” for “this assay.”, “EGCG (50-200” for “EGCG (15-200”, “indicated times.” for “indicated time periods.”

OSC-4 cells = assay: MTT assay (SDH activity), OSC-4 cells; format: cell-based, human
Method: MTT [3-(4,5-dimethylthiazol-2-yl)-2,5-diphenyl tetrazolium bromide] assay. This method directly detects the activity of mitochondrial succinate dehydrogenase (SDH). Changes in SDH activity is a measurement of cell viability when stress is introduced in cell culture through chemical or physical means. Cells (1.5×10^4 cells/well) were seeded in a 96-well microplate and treated with the indicated doses of EGCG for 24 hours. After the treatment, the cells in each well were washed with 200 μl of phosphate-buffered saline (PBS), incubated with 100 μl of 2% MTT in a solution of 0.05 M Tris, 0.5 mM MgCl2, 2.5 mM CoCl2, and 0.25 M disodiumn succinate as substrate (Sigma) at 37° C. for 30 minutes. Cells were fixed in situ by the addition of 100 μl of 4% formalin in 0.2 M Tris (pH 7.7), and after a 5 minute incubation at room temperature liquid was removed and the wells were allowed to dry. Each well was rinsed with 200 μl water and cells were solubilized by the addition of 100 μl of 6.35% 0.1 N NaOH in DMSO. The colored formazan product was measured by a Thermo MAX micro plate reader (Molecular Devices Corp., Sunnyvale, Calif.) at a wavelength of 562 nm. Experiments were repeated three times with triplicate samples for each experiment.

OSC-2 cells [4] = assay: MTT assay (mitochondrial SDH activity), OSC2 (OSC-2) cells
Method: This method detects the activity of mitochondrial succinate dehydrogenase (SDH). In a 96-well plate, 1.5×10^4 cells were seeded in each well. After variety of treatments, 100 μl of 2% MTT was added to each well and the plate was incubated at 37° C. for 30 minutes. 100 μl of 0.2 M Tris (pH 7.7) with 4% formalin was added to each well. After incubation at room temperature for 5 minutes, liquid was removed and the wells were allowed to dry. Each well was rinsed with 200 μl water followed by addition of 100 μl DMSO (6.35% 0.1 N NaOH in DMSO) to each well. The coloration was measured by a Thermo MAX microplate reader (Molecular Devices Corp. Sunnyvale, Calif. using wavelengths of 562 nm. Experiments were repeated three times with triplicate samples for each experiment.
This method directly detects the activity of mitochondrial succinate dehydrogenase (SDH). Changes in SDH activity is a measurement of cell viability when stress is introduced in cell culture through chemical or physical means. Cells (1.5×10^4 cells/well) were seeded in a 96-well microplate and treated with the indicated doses of EGCG for 24 hours. After the treatment, the cells in each well were washed with 200 μl of phosphate-buffered saline (PBS), incubated with 100 μl of 2% MTT in a solution of 0.05 M Tris, 0.5 mM MgCl2, 2.5 mM CoCl2, and 0.25 M disodiumn succinate as substrate (Sigma) at 37° C. for 30 minutes. Cells were fixed in situ by the addition of 100 μl of 4% formalin in 0.2 M Tris (pH 7.7), and after a 5 minute incubation at room temperature liquid was removed and the wells were allowed to dry. Each well was rinsed with 200 μl water and cells were solubilized by the addition of 100 μl of 6.35% 0.1 N NaOH in DMSO. The colored formazan product was measured by a Thermo MAX micro plate reader (Molecular Devices Corp., Sunnyvale, Calif.) at a wavelength of 562 nm. […]
This method directly detects the activity of mitochondrial succinate dehydrogenase (SDH). […] Solubilized colored formazan product was measured using a Thermo MAX microplate reader (Molecular Devices Corp., Sunnyvale, Calif.) at a wavelength of 562 nm.

NHEK [5] = assay: Intracellular ROS levels (DFDA assay), NHEK; format: cell-based, human; conditions: 5 mM diamide, 1-minute incubation
Method: Measurement of intracellular ROS levels. The ROS assay measures the accumulation of intracellular ROS levels. The non-fluorescent dye DFDA passively diffuses into cells, where the acetates are cleaved by intracellular esterases. […] Thus, values of the fluorescence in the cell cultures are constantly rising in this assay. […] The intracellular ROS levels were measured by using a fluorescence plate reader (BIO-TEK FL600, Bio-Tek Instruments, Inc., Winooski, Vt.), at an excitation wavelength of 485 nm and an emission wavelength of 530 nm.

caspase-3 = assay: Caspase-3 activity, OSC-2 and OSC-4 cells pretreated with catalase; format: cell-based, human; conditions: 200 U/ml catalase, 24 hour
Method: Caspase-3 activity assay. The caspase-3 apoptosis detection kit (Santa Cruz Biotechnology, Inc., Santa Cruz, Calif.) was used to measure caspase-3 activity. Cells (10^5 cells/well) were plated in triplicate in a 24-well tissue culture plate. […] To each well, 100 μl of 2×reaction buffer was added with 10 mM dithiothreitol. Finally, 5 μl of DEVD-AFC substrate was added to each well containing cell lysates. The reaction mixtures were incubated for 1 hour at 37° C., and caspase-3 activity in each well was measured using a fluorescence microplate reader ([…]luor Plus, Tecan US, Research Triangle Park, N.C.) at a wavelength of 405 nm for excitation and 505 nm for emission.

OSC-2 and OSC-4 cells [6] = assay: BrdU incorporation, OSC-2 and OSC-4 cells with exogenous catalase; format: cell-based, human; conditions: 200 U/ml catalase, 200 μM EGCG, 24 h
Method: DNA synthesis assay. DNA synthesis was analyzed by a BrdU cell proliferation assay kit (Oncogene Research Products, Boston, Mass.). […] After the treatment, cells were labeled with BrdU for 2 hours at 37° C. and reacted with anti-BrdU antibody. Unbound antibody in each well was removed by rinsing, and horseradish peroxidase-conjugated goat anti-mouse IgG antibody was added to each well. The color reaction to visualize the secondary antibody was carried out according to the protocol provided by the manufacturer.

Nc1nc[nH]n1 [3-AT, 3-amino-1,2,4-triazole]
susceptibility of NHEK to EGCG cytotoxicity after 3-AT (NHEK [1]; pretreatment with 3-AT): did not become susceptible to EGCG cytotoxicity
effect of 3-AT on EGCG-induced decline of SDH activity (OSC-2 and OSC-4 cells [2]; 30 μM 3-AT 2 hours, 200 μM EGCG): had no significant effect on the decline of mitochondrial SDH activity

c1ccc2c(c1)cc1ccc3cccc4ccc2c1c34 [BaP, reference compound]
p57 expression, carcinogen alone (p57 (KIP2)): did not alter p57 expression

OO [H2O2, hydrogen peroxide]
SDH activity remained (NHEK [1]; 1 mM H2O2, 24 hours): 75%
reduction of SDH activity (NHEK [1]; 1 mM H2O2, 24 hours): 25%
ROS accumulated in OSC-2 cells relative to OSC-4 cells (OSC-2 cells [3]): approximately two
SDH activity (OSC-4 cells; 100 μM H2O2): had no significant effect on SDH activity
H2O2 concentration needed to cause […]% reduction of SDH activity (OSC-4 cells; 24 hours): 250 µM
SDH activity (OSC-2 cells [4]; 50 μM H2O2, 24 hour): had no effect on the SDH activity
H2O2 concentration needed to cause […]% reduction of SDH activity (OSC-2 cells [4]; 24 hours): 250 µM

CC(=O)N[C@@H](CS)C(=O)O [NAC, N-acetyl-L-cysteine]
effect of NAC on EGCG-induced cytotoxicity (OSC-2 and OSC-4 cells [2]; 10 mM NAC 2 hour pretreatment): failed to rescue both cell lines from EGCG-induced cytotoxicity
effect of NAC on H2O2 cytotoxicity (OSC-2 and OSC-4 cells [2]; 10 mM NAC 2 hour pretreatment, H2O2 250 and 500 μM): significantly inhibited the cytotoxic effect of H2O2

CN(CCCC(=O)c1cccnc1)N=O [NNK, reference compound]
p57 expression, carcinogen alone (p57 (KIP2)): did not alter p57 expression

C[C@@H]1C[C@@H]([C@H](O)CC2CC(=O)NC(=O)C2)C(=O)[C@@H](C)C1 [cycloheximide, reference compound]
p57 protein levels with cycloheximide (p57 (KIP2); 30 μg/ml cycloheximide plus 50 μM EGCG): gradual decline in p57 protein levels

CN(C)C(=O)/N=N/C(=O)N(C)C [diamide, reference compound]
ROS accumulated in OSC-2 cells relative to OSC-4 cells (OSC-2 cells [3]): doubled that in OSC-4 cells; also recorded: approximately two
intracellular ROS levels vs endogenous (NHEK [5]): induced ROS

catalase
effect of exogenous catalase on EGCG-induced caspase 3 activation (caspase-3): partially inhibited EGCG-induced caspase 3 activation
effect of exogenous catalase on EGCG-induced SDH reduction in OSC-4 cells (OSC-2 and OSC-4 cells [2]; 200 U/ml catalase, 200 μM EGCG): partially reversed the effects of 200 μM EGCG
effect of exogenous catalase on EGCG-induced SDH reduction (OSC-2 and OSC-4 cells [2]; 200 U/ml catalase, 200 μM EGCG, 24 h): had no effect on this reduction
effect of exogenous catalase on BrdU incorporation with EGCG (OSC-2 and OSC-4 cells [6]): had no effect on the rates of BrdU incorporation
